System: NOMO1
Assay: cell viability relative to DMSO control; higher = less cytotoxic
Details: 48 h
In short: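 In 1536-well plates, 5 μl of leukemia cells were seeded per well: 500 cells/well for NOMO1 or SEM and 1000 cells/well for P12-Ichikawa. Each line had first been adapted for at least four passages in each medium. Library compounds in DMSO were pin-dosed at 11 threefold concentrations between 47 μM and 0.79 nM, and CellTiter-Glo One luminescence was read after 48 h at 37°C. Viability is a per-plate percentage relative to DMSO wells, with cell-free wells as background.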

[1] = HPLM + 10% dialyzed FBS, 0.000781 µM
[2] = HPLM + 10% dialyzed FBS, 0.00234 µM
[3] = HPLM + 10% dialyzed FBS, 0.00702 µM
[4] = HPLM + 10% dialyzed FBS, 0.0211 µM
[5] = HPLM + 10% dialyzed FBS, 0.0632 µM
[6] = HPLM + 10% dialyzed FBS, 0.19 µM
[7] = HPLM + 10% dialyzed FBS, 0.569 µM
[8] = HPLM + 10% dialyzed FBS, 1.71 µM
[9] = HPLM + 10% dialyzed FBS, 5.12 µM
[10] = HPLM + 10% dialyzed FBS, 15.4 µM
[11] = HPLM + 10% dialyzed FBS, 46.1 µM
[12] = RPMI 5 mM glucose + 10% FBS, 0.000781 µM
[13] = RPMI 5 mM glucose + 10% FBS, 0.00234 µM
[14] = RPMI 5 mM glucose + 10% FBS, 0.00702 µM
[15] = RPMI 5 mM glucose + 10% FBS, 0.0211 µM
[16] = RPMI 5 mM glucose + 10% FBS, 0.0632 µM
[17] = RPMI 5 mM glucose + 10% FBS, 0.19 µM
[18] = RPMI 5 mM glucose + 10% FBS, 0.569 µM
[19] = RPMI 5 mM glucose + 10% FBS, 1.71 µM
[20] = RPMI 5 mM glucose + 10% FBS, 5.12 µM
[21] = RPMI 5 mM glucose + 10% FBS, 15.4 µM
[22] = RPMI 5 mM glucose + 10% FBS, 46.1 µM
[23] = RPMI 5 mM glucose + 10% dialyzed FBS, 0.000781 µM
[24] = RPMI 5 mM glucose + 10% dialyzed FBS, 0.00234 µM
[25] = RPMI 5 mM glucose + 10% dialyzed FBS, 0.00702 µM
[26] = RPMI 5 mM glucose + 10% dialyzed FBS, 0.0211 µM
[27] = RPMI 5 mM glucose + 10% dialyzed FBS, 0.0632 µM
[28] = RPMI 5 mM glucose + 10% dialyzed FBS, 0.19 µM
[29] = RPMI 5 mM glucose + 10% dialyzed FBS, 0.569 µM
[30] = RPMI 5 mM glucose + 10% dialyzed FBS, 1.71 µM
[31] = RPMI 5 mM glucose + 10% dialyzed FBS, 5.12 µM
[32] = RPMI 5 mM glucose + 10% dialyzed FBS, 15.4 µM
[33] = RPMI 5 mM glucose + 10% dialyzed FBS, 46.1 µM

Row | Structure (SMILES) | cell viability [1] [%] | cell viability [2] [%] | cell viability [3] [%] | cell viability [4] [%] | cell viability [5] [%] | cell viability [6] [%] | cell viability [7] [%] | cell viability [8] [%] | cell viability [9] [%] | cell viability [10] [%] | cell viability [11] [%] | cell viability [12] [%] | cell viability [13] [%] | cell viability [14] [%] | cell viability [15] [%] | cell viability [16] [%] | cell viability [17] [%] | cell viability [18] [%] | cell viability [19] [%] | cell viability [20] [%] | cell viability [21] [%] | cell viability [22] [%] | cell viability [23] [%] | cell viability [24] [%] | cell viability [25] [%] | cell viability [26] [%] | cell viability [27] [%] | cell viability [28] [%] | cell viability [29] [%] | cell viability [30] [%] | cell viability [31] [%] | cell viability [32] [%] | cell viability [33] [%]
1 | CN1\C(=C(O)/C2=C(C=C(Cl)S2)[S+]1([O-])=O)C(=O)NC3=NC=CC=C3 | 138 | 112 | 116 | 125 | 119 | 111 | 132 | 103 | 125 | 123 | 108 | 109 | 108 | 110 | 105 | 119 | 128 | 126 | 109 | 108 | 121 | 111 | 115 | 101 | 126 | 120 | 131 | 126 | 123 | 118 | 112 | 116 | 114
2 | CC/C(=C(\c1ccccc1)c1ccc(OCCN(C)C)cc1)c1ccccc1 | 95 | 122 | 107 | 99.5 | 119 | 113 | 113 | 92.4 | 111 | 92.5 | 49.1 | 94.8 | 102 | 102 | 115 | 103 | 101 | 94.1 | 99 | 96.1 | 105 | 76.7 | 93.1 | 99.2 | 104 | 103 | 115 | 110 | 114 | 99.8 | 117 | 81 | 34.7
3 | CCCCC(F)(F)[C@@]1(O)CC[C@H]2[C@@H](CC(=O)[C@@H]2CCCCCCC(=O)O)O1 | – | – | – | – | – | – | – | – | – | – | – | 123 | 123 | 126 | 115 | 118 | 117 | 115 | 108 | 121 | 111 | 103 | – | – | – | – | – | – | – | – | – | – | –
4 | CCN(CC)CCNC(=O)c1ccc2nc(-c3ccccc3)c(-c3ccc(CN4CCC(n5c(=O)[nH]c6ccccc65)CC4)cc3)nc2c1 | 95.1 | 124 | 152 | 134 | 112 | 130 | 107 | 93.6 | 10.6 | 8.39 | 4.57 | – | – | – | – | – | – | – | – | – | – | – | – | – | – | – | – | – | – | – | – | – | –
5 | COC(=O)[C@@H]1CC2=CC(=O)CC[C@]2(C)[C@@]23O[C@@H]2C[C@@]2(C)[C@@H](CC[C@@]24CCC(=O)O4)[C@H]13 | 93.6 | 115 | 107 | 121 | 116 | 133 | 122 | 136 | 124 | 123 | 119 | 95.3 | 91.4 | 112 | 106 | 104 | 110 | 116 | 105 | 109 | 102 | 112 | 105 | 121 | 113 | 121 | 110 | 108 | 123 | 141 | 125 | 116 | 120
6 | CCCC[N+]1(C)[C@@H]2CC(OC(=O)[C@H](CO)c3ccccc3)C[C@H]1[C@@H]1O[C@@H]12 (some centres undefined) | – | – | – | – | – | – | – | – | – | – | – | 106 | 107 | 118 | 120 | 125 | 102 | 114 | 97.9 | 93.6 | 77.7 | 15.6 | 120 | 124 | 136 | 127 | 129 | 118 | 121 | 122 | 117 | 105 | 22.7
7 | NC(=O)[C@@H](CCC(F)(F)F)N(Cc1ccc(-c2ncon2)cc1F)[S+](=O)([O-])c1ccc(Cl)cc1 | 107 | 106 | 113 | 108 | 109 | 105 | 97.5 | 91.7 | 96.3 | 71 | 3.05 | 92.8 | 103 | 91.1 | 90.6 | 97.8 | 96.3 | 78.5 | 73.9 | 84.6 | 77.2 | 61 | 94.4 | 93 | 97.1 | 88.3 | 96.9 | 105 | 87 | 83.2 | 88.5 | 81.6 | 50.2
8 | CCOC\1=C(/C(=O)NC2=CC=C(OC3=C(Cl)C(=NC=C3)N)C(=C2)F)C(=O)N(\C=C1)C4=CC=C(F)C=C4 | 86.9 | 96.1 | 99.3 | 96.1 | 102 | 106 | 91.6 | 75.6 | 75.1 | 70.9 | 39.1 | 99.8 | 102 | 104 | 90.4 | 100 | 96.6 | 93.5 | 88.7 | 90 | 92 | 51.9 | 111 | 96.1 | 92.2 | 94.7 | 95.3 | 96.8 | 89.1 | 95.8 | 100 | 74.7 | 52.7
9 | Cc1ccccc1C(C(=O)NC1CCCC1)N(C(=O)Cn1cnc2ccccc21)c1cccc(F)c1 (centres undefined) | – | – | – | – | – | – | – | – | – | – | – | 118 | 114 | 127 | 105 | 125 | 107 | 113 | 121 | 108 | 110 | 99.8 | – | – | – | – | – | – | – | – | – | – | –
10 | COC1=C(CC=C(C)C)C2=C(\C=C/C(=O)O2)C=C1 | 101 | 107 | 125 | 110 | 119 | 114 | 117 | 120 | 102 | 113 | 81.8 | 114 | 117 | 120 | 116 | 104 | 123 | 104 | 108 | 108 | 114 | 97.9 | 116 | 116 | 117 | 105 | 108 | 116 | 120 | 113 | 98.7 | 104 | 85.2
11 | CC(=O)OCC(CCn1cnc2cnc(N)nc21)COC(C)=O | 80 | 105 | 89.9 | 98.4 | 102 | 113 | 102 | 120 | 112 | 103 | 101 | 91.7 | 101 | 92.8 | 93.1 | 93.9 | 106 | 98.9 | 108 | 104 | 94.2 | 92.7 | 92.4 | 91.3 | 104 | 93 | 89.9 | 112 | 100 | 101 | 99.9 | 108 | 90.3
12 | NNC(=O)c1ccncc1 | 90.3 | 99.2 | 117 | 123 | 121 | 124 | 125 | 123 | 137 | 131 | 123 | 108 | 111 | 114 | 109 | 122 | 135 | 123 | 115 | 128 | 119 | 130 | 120 | 117 | 110 | 117 | 119 | 118 | 119 | 126 | 124 | 126 | 125
13 | CN1CCN(CC1)C/2=N/C3=CC=CC=C3NC4=C2C=C(C)S4 | 94.5 | 101 | 102 | 109 | 110 | 96.1 | 93.5 | 86.3 | 86.6 | 75.5 | 77.1 | 89.8 | 85.5 | 80.5 | 88.5 | 100 | 82.4 | 96.7 | 83.9 | 86.1 | 82 | 97.1 | 86.1 | 72.9 | 78.6 | 85 | 88.9 | 86.9 | 99.3 | 89.4 | 76.2 | 69.7 | 81.2
14 | OC[C@H]1O[C@H](C[C@@H]1O)N2\C=C(\I)C(=O)NC2=O | 107 | 118 | 105 | 126 | 116 | 113 | 114 | 125 | 105 | 91.3 | 79.2 | 112 | 120 | 110 | 113 | 120 | 116 | 127 | 119 | 129 | 115 | 88.6 | 103 | 118 | 114 | 117 | 132 | 117 | 133 | 104 | 97.1 | 98.5 | 86.2
15 | CCC1=C2CN3C(=O)\C4=C(/C=C3/C2=NC5=CC=C(O)C=C15)[C@@](O)(CC)C(=O)OC4 | 102 | 96 | 97.8 | 60.5 | 27.1 | 25.9 | 28.2 | 23.4 | 22.8 | 24.8 | 27 | 93 | 95.5 | 92.5 | 91.8 | 18 | 16.6 | 20.7 | 17.4 | 19.6 | 16.6 | 16.1 | 104 | 90.1 | 91.8 | 69.8 | 23.6 | 22.5 | 26.6 | 21 | 22.7 | 22.2 | 21.2
16 | N[S+](=O)([O-])c1cc2c(cc1Cl)NCN[S+]2(=O)[O-] | 111 | 97.3 | 105 | 109 | 122 | 111 | 122 | 121 | 103 | 105 | 102 | 108 | 109 | 114 | 109 | 101 | 113 | 119 | 117 | 117 | 112 | 98.8 | 109 | 101 | 112 | 106 | 122 | 136 | 117 | 124 | 111 | 112 | 101
17 | CON(C)C(=O)N1\N=C(/S[C@]1(CCCN)C2=CC=CC=C2)C3=CC(=CC=C3F)F | 65 | 41.6 | 39.2 | 46.7 | 46.2 | 40.4 | 30.8 | 37.2 | 32.1 | 24.7 | 24.1 | 55.1 | 22.8 | 26.3 | 27.1 | 21.7 | 20 | 23.4 | 22.8 | 20.6 | 15.6 | 15.7 | 96 | 30.7 | 36.8 | 35 | 32.2 | 31.2 | 27.9 | 32.6 | 28.5 | 22.6 | 22.5
